Laboratory results from publication doi:10.1101/2025.03.14.643404, “A Bivalent Molecular Glue Linking Lysine Acetyltransferases to Oncogene-induced Cell Death” (bioRxiv, 2025).

Biological target: T1, p300 (Homo sapiens, UniProt Q09472)
T1 construct: endogenous in cells; host or cells: SUDHL5
Test: Global proteome profiling in SUDHL5, p300 abundance
Format: cell-based
Details: SUDHL5, 10 nM, 24 hours
Experimental: SUDHL5 cells (6M cells in 6 mL RPMI-1640 media supplemented with 10% FBS and 1x pen-strep) were treated with 0.1% DMSO, 10 nM TCIP3, 10 nM Neg1, 10 nM Neg2, or 250 nM dCBP1 (1000x stocks in DMSO for final 0.1% DMSO concentration) in 3 biologically independent replicates. The cells were washed twice with TBS (50 mM Tris, pH 8.5, and 150 mM NaCl) and then stored at −80 °C until use.
Lysis was performed by first thermally denaturing the samples in residual wash buffer for 5 min at 95 °C. Fresh Lysis Buffer (8 M urea, 150 mM NaCl, and 100 mM HEPES, pH 8.0, in MS-grade water) was then added, and the lysates were homogenized using needle ultrasonication and then normalized to 30 μg of 2 mg/mL by diluting with Lysis Buffer via a Bradford protein concentration assay (Bio-Rad 5000006) in technical duplicates. […]
Samples were then desalted using SOLAμ SPE HRP Peptide Desalting columns (Thermo 60209–001) with a Positive Pressure Manifold and all MS-grade reagents. […] The samples were then reconstituted in 0.1% FA in water and then analyzed by LC-MS/MS (see below).
The reconstituted desalted peptides were then analyzed using a nanoElute 2 UHPLC (Bruker Daltonics, Bremen, Germany) coupled to a timsTOF HT (Bruker Daltonics, Bremen, Germany) via a CaptiveSpray nano-electrospray source. […]

T1 sequence (Q09472 2-2414 limits assumed, other chains not shown): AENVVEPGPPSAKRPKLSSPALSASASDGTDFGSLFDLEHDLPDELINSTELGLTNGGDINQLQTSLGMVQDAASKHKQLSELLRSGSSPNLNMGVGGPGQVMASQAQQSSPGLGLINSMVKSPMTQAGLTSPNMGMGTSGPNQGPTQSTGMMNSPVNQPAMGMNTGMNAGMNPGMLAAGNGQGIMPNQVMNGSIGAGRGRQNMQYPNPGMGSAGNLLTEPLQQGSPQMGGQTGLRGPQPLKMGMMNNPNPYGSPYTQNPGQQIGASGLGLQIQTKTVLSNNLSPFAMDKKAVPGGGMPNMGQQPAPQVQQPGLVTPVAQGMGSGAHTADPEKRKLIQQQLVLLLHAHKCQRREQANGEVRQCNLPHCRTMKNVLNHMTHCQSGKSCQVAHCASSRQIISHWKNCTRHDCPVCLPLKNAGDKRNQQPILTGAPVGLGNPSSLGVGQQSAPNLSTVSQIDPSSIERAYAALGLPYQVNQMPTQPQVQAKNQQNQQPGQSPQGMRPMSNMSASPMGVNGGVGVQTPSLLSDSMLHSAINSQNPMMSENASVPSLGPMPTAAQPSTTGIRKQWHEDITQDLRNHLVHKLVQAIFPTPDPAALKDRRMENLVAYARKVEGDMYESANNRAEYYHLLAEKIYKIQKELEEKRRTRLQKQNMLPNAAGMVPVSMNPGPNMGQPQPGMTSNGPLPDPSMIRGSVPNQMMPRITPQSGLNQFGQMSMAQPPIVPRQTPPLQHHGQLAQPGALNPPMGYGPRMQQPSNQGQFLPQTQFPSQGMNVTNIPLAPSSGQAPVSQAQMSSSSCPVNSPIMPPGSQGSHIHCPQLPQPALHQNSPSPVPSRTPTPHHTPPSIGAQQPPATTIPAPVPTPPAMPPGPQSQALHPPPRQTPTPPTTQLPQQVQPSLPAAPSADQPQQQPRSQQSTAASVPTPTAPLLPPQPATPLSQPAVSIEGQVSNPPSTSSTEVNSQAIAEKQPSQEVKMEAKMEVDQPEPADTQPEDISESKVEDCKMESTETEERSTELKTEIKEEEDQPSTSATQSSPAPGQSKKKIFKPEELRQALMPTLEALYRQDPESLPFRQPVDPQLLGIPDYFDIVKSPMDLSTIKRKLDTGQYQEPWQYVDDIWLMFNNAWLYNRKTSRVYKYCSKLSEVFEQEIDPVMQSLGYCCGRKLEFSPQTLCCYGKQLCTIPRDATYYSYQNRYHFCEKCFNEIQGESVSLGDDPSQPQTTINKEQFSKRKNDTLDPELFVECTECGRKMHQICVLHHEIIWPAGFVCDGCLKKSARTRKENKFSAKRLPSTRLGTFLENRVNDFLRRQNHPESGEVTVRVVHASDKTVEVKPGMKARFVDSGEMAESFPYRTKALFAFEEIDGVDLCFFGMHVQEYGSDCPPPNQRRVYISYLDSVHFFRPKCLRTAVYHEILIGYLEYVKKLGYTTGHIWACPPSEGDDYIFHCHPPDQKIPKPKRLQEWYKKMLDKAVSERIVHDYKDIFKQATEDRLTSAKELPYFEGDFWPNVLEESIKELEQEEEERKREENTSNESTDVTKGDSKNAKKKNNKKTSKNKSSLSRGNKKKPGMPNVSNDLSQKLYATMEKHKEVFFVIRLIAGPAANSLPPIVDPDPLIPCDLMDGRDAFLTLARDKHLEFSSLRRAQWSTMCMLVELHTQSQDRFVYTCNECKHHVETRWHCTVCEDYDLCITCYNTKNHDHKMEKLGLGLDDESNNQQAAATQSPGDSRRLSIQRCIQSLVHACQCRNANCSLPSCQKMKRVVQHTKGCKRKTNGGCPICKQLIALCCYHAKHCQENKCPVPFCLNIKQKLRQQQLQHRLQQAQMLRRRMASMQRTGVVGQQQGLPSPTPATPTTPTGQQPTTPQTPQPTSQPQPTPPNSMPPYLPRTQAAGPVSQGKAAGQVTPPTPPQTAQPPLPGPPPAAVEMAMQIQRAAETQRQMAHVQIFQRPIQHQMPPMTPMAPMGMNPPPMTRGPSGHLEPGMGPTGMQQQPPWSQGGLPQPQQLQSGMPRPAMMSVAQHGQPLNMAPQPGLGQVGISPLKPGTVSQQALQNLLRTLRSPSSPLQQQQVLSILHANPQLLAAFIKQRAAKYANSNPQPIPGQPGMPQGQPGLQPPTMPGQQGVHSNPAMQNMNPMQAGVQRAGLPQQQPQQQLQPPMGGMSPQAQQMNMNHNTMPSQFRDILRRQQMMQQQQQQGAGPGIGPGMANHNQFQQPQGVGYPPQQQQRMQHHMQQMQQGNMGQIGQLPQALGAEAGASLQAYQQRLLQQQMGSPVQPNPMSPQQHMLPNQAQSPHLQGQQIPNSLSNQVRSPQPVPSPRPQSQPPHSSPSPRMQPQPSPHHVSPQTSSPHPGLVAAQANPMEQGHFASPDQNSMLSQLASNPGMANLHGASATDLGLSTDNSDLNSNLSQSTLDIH

SMILES: CNC(=O)COc1cc2cc(Nc3nc(N4CCC(C(=O)N5CCN(CCC(=O)N6CCC(n7nc(N8CCCc9cc(-c%10cnn(C)c%10)c(C(F)F)cc98)c8c7CCN(C(=O)NC)C8)CC6)CC5)CC4)ncc3Cl)cc(OC)c2n(C)c1=O [TCIP3]
- p300 protein abundance log2(fold change): 0.37
